Experimental data published in patent US11352350B2, “IRAK degraders and uses thereof” (Kymera Therapeutics, Inc., priority 2018, dated 2022).
Where two headings read alike, the source gives them in different places.

Key:
IRAK4 [1] = target: T1, IRAK4 (Homo sapiens (Human), UniProt Q9NWZ3); assay: IRAK4 degradation in human whole blood lymphocyte - flow cytometry; type: cell-based; conditions: read-out: IRAK4 degradation in whole blood lymphocyte-Flow cytometry: Average external Abs IC50
Protocol: (§1) Human whole blood IRAK4 degradation flow assay. Whole blood was collected in heparinized tubes and plated on the same day as draw (day 0). Whole blood was aliquoted into deep well plates. Compound plates were prepared and a 10 point, 5-fold dilution was performed with a final DMSO concentration of 0.1%. Compound was added to whole blood deep well plate, sealed and incubated at 37° C., 5% CO2 for 20 hours (for 4 hour treatment, compounds were prepared and added the following day). Following the treatment incubation period (day 1), BD lyse fix (BD #558049) was added to the whole blood plate, placed on plate shaker for 30 seconds and incubated for 10 mins at room temperature. Whole blood was then spun down and washed two times with PBS/0.5% BSA, aspirated to pellet and placed into −80° C. freezer until further processing for flow. On the flow run day, whole blood plates were thawed and samples were transferred to PCR plates. The pre-perm staining cocktail (CD3 Ax488/CD8 BUV805/CD14 BUV395/CD16/56 BV711/CD19 BV785) was added to samples and incubated for 30 minutes at room temperature. Samples were washed two times and permeabilized with Methanol for 10 minutes at 4° C. Samples were washed two times and the post-perm staining cocktail (CD4 PE/IRAK4 Ax647 BD #560315) was added and incubated for 30 minutes at room temperature. Samples were washed two times with PBS/BSA and run on a BD LSRFortessa. Mononuclear cells are gated by SSCH/FSCH and single cells. Monocytes are then gated through CD14 positive gate and lymphocytes are gated through CD14 negative gate. To determine absolute DC50 and max degradation values, MFI values were normalized to DMSO max and 20 hour 10 μM min control. Twenty hour dose curves were calculated using a 4 parameter logistic regression curve fit, no constraints (Top doses were removed if hook effects were observed and the bottom was constrained to 0).

OCI-LY10 = assay: CTG Cell Viability Assay - OCI-LY10; type: cell-based, human; conditions: OCI-LY10, 4 days, read-out: CTG Cell Viability Assay - OCI-LY10: Average external-IC50
Method in brief: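 OCI-LY10 cells exposed to 9-dose, 1:3 dilutions from 10 μM top (0.2% DMSO) for 4 days at 37° C, 5% CO2. Viability by CellTiter-Glo luminescence; IC50 from three-parameter logistic fit.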

TNFα [2] = assay: Human whole blood LPS TNFα assay; type: cell-based; conditions: 20 h pretreatment, LPS 5 h, read-out: IRAK4 human whole blood LPS TNFa inhibition: Average external-IC50
Protocol: Human Whole blood LPS TNFα assay. Whole blood was collected fresh and plated same day into 96 well plates at 180 μL per well. Compound plates were prepared in DMSO as 8-point dose curves in duplicate, starting dose 2 μM, 5-fold. Compounds are added 20 μL into blood for final 200 μL per well. Compound and cells were incubated at 37° C., 5% CO2 for 20 hours. After twenty hours of pretreatment with the compounds, LPS (01 1 1:B4) (Sigma #L2637) was added at 100 ng/ml final concentration and blood incubated an additional five hours at 37° C., 5% CO2. Following assay completion, whole blood plates were spun down at 2000 rpm for 15 minutes at 4° C. 50 μL of plasma was carefully removed and placed into a new 96 well Costar (#3879) plate and stored at −80° C. until further analysis. Meso scale Discovery (MSD) human V-plex assays were used to measure cytokine levels. On day of cytokine analysis, plasma samples were thawed, diluted with V-plex diluent #2, and directly to MSD plates. Assay was further completed per standard manufacturer's protocol. Cytokine data was normalized to LPS stimulated and unstimulated controls. Prism Graphpad was used to generate IC50 using 4 parameter logistic regression curve, free-fit.

IRAK4 [3] = target: T1, IRAK4; assay: IRAK4 degradation in human whole blood monocyte - flow cytometry; type: cell-based; conditions: read-out: IRAK4 degradation in whole blood monocyte-Flow cytometry: Average external Abs IC50
Protocol: as §1

IRAK4 [4] = target: T1, IRAK4; assay: IRAK4 MSD degradation in OCI-LY10; type: cell-based; conditions: OCI-LY10, 4 hrs, MSD; read-out: IRAK4 MSD degradation in OCI-LY10 at 4 hrs: Average external-Abs DC50
Method in brief: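 OCI-LY10 cells treated with 8-point 1:3 dilutions (top 1 to 10 μM final) for 4 to 24 h at 37° C. Lysate IRAK4 measured by MSD sandwich immunoassay (2H9 capture, Y279 detection, SULFO-TAG anti-rabbit). DC50 from three-parameter logistic fit.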

TNFα [5] = assay: Human PBMC LPS TNFα assay; type: cell-based; conditions: hPBMC, LPS stimulation, read-out: IRAK4 hPBMC LPS TNF-α inhibition: Average external-IC50
Protocol: Human PBMC LPS TNFα assay. Frozen PBMCs were thawed into RPMI with 10% FBS/1% penicillin/streptomycin and same day plated into 96 well plates at 200,000 PBMC/[…] media per well. Compound plates were prepared in DMSO with D300 cassette as 8-point dose curves in duplicate, starting dose 2 μM, 5-fold. Compounds are added 200 nL into cells for final 200 μL per well. Compound and cells were incubated at 37° C., 5% CO2 for 20 hours. After twenty hours of pretreatment with the compounds, LPS (01 1 1:B4) (Sigma #L2637) was added at 100 ng/ml final concentration and PBMCs incubated an additional five hours at 37° C., 5% CO2. Following assay completion, PBMC plates were spun down at 2000 rpm for 10 minutes. 100 uL of supernatant was carefully removed and placed into a new 96 well Costar (#3879) plate and stored at −80° C. until further analysis. Meso scale Discovery (MSD) human V-plex assays were used to measure cytokine levels. On day of cytokine analysis, supernatant samples were thawed, diluted with V-plex diluent #2, and directly to MSD plates. Assay was further completed per standard manufacturer's protocol. Cytokine data was normalized to LPS stimulated and unstimulated controls. Prism Graphpad was used to generate IC50 using 4 parameter logistic regression curve, free-fit.

T1 sequence (Q9NWZ3 whole entry): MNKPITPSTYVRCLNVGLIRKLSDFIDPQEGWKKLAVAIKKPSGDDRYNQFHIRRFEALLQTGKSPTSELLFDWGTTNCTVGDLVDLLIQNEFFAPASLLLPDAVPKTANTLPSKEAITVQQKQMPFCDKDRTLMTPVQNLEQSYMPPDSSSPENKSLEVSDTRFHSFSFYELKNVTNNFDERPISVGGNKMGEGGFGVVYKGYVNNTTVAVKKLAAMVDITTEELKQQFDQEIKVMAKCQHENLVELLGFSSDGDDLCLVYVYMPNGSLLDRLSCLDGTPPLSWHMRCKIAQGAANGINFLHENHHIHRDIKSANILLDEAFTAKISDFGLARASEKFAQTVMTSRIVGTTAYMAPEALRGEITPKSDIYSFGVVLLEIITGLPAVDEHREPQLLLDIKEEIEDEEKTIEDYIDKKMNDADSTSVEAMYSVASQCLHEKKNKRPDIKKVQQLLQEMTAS

Cn1c(=O)n(C2CCC(=O)NC2=O)c2cccc(CCCOCCOCCNC[C@H]3CC[C@H](n4cc(NC(=O)c5coc(-c6ccnc(NCC(F)(F)F)c6)n5)c(C(N)=O)n4)CC3)c21 (stereo partly drawn) [I-6]
DC50 (IRAK4 [1]): < 0.05 µM | IC50 (OCI-LY10; Homo sapiens, OCI-Ly10, 96 h): > 1 µM | IC50 (TNFα [2]): > 1 µM | IC50 (IRAK4 [3]): < 0.05 µM | DC50 (IRAK4 [4]): < 0.01 µM

Cn1c(=O)n(C2CCC(=O)NC2=O)c2ccc(CCCCOCCCCNC[C@H]3CC[C@H](n4cc(NC(=O)c5coc(-c6ccnc(NCC(F)(F)F)c6)n5)c(C(N)=O)n4)CC3)cc21 (stereo partly drawn) [I-9]
DC50 (IRAK4 [1]): 0.05 to 0.1 µM | IC50 (OCI-LY10; Homo sapiens, OCI-Ly10, 96 h): > 1 µM | IC50 (TNFα [2]): > 1 µM | IC50 (IRAK4 [3]): < 0.05 µM | DC50 (IRAK4 [4]): < 0.01 µM

CN(C[C@H]1CN(CCCc2ccc3c(c2)n(C)c(=O)n3C2CCC(=O)NC2=O)CCO1)C(=O)[C@H]1CC[C@H](n2cc(NC(=O)c3coc(-c4ccnc(NCC5CC5)c4)n3)c(C(F)F)n2)CC1 (stereo partly drawn) [I-18]
DC50 (IRAK4 [1]): 0.1 to 0.5 µM | IC50 (OCI-LY10; Homo sapiens, OCI-Ly10, 96 h): 0.05 to 0.1 µM | IC50 (TNFα [2]): 0.1 to 0.5 µM | IC50 (IRAK4 [3]): < 0.05 µM | DC50 (IRAK4 [4]): < 0.01 µM

O=C1CCC(n2c3ccccc3c3c(CCCOCCOCCNC[C@H]4CC[C@H](n5cc(NC(=O)c6coc(-c7ccnc(NCC8CC8)c7)n6)c(C(F)F)n5)CC4)ccnc32)C(=O)N1 (stereo partly drawn) [I-92]
DC50 (IRAK4 [1]): 0.5 to 1 µM | IC50 (OCI-LY10; Homo sapiens, OCI-Ly10, 96 h): 0.1 to 0.5 µM | DC50 (IRAK4 [3]): 0.1 to 0.5 µM | DC50 (IRAK4 [4]): 0.01 to 0.1 µM

CN(CCCOCCCc1cccc2c1n(C)c(=O)n2C1CCC(=O)NC1=O)C(=O)[C@H]1CC[C@H](n2cc(NC(=O)c3coc(-c4ccnc(NCC(F)(F)F)c4)n3)c(C(N)=O)n2)CC1 (stereo partly drawn) [I-29]
DC50 (IRAK4 [1]): 0.5 to 1 µM | IC50 (OCI-LY10): > 1 µM | IC50 (TNFα [2]): > 1 µM | DC50 (IRAK4 [3]): 0.5 to 1 µM | DC50 (IRAK4 [4]): < 0.01 µM

CN(CC1CCN(Cc2cccc3c2n(C)c(=O)n3C2CCC(=O)NC2=O)CC1)C[C@H]1CC[C@H](n2cc(NC(=O)c3coc(-c4ccnc(NCC5CC5)c4)n3)c(C(F)F)n2)CC1 (stereo partly drawn) [I-76]
DC50 (IRAK4 [1]): 0.05 to 0.1 µM | IC50 (OCI-LY10; Homo sapiens, OCI-Ly10, 96 h): < 0.05 µM | DC50 (IRAK4 [3]): 0.05 to 0.1 µM | IC50 (TNFα [5]): < 0.05 µM | DC50 (IRAK4 [4]): < 0.01 µM

CC(C)c1nn([C@H]2CC[C@H](CN(C)C[C@@H]3CN(CCCc4ccc5c(c4)n(C)c(=O)n5C4CCC(=O)NC4=O)CCO3)CC2)cc1NC(=O)c1coc(-c2ccnc(NCC3CC3)c2)n1 (stereo partly drawn) [I-94, 2-[2-(Cyclopropylmethylamino)-4-pyridyl]-N-[1-[4-[[[(2R)-4-[3-[1-(2,6-dioxo-3-piperidyl)-3-methyl-2-oxo-benzimidazol-5-yl]propyl]morpholin-2-yl]methyl-methyl-amino]methyl]cyclohexyl]-3-isopropyl-pyrazol-4-yl]oxazole-4-carboxamide]
DC50 (IRAK4 [1]): 0.1 to 0.5 µM | DC50 (IRAK4 [3]): 0.1 to 0.5 µM

CN(CC1CCN(CCC#Cc2ccc3c(c2)n(C)c(=O)n3C2CCC(=O)NC2=O)CC1)C(=O)[C@H]1CC[C@H](n2cc(NC(=O)c3coc(-c4ccnc(NCC5CC5)c4)n3)c(C(F)F)n2)CC1 (stereo partly drawn) [I-27]
DC50 (IRAK4 [1]): < 0.05 µM | IC50 (OCI-LY10; Homo sapiens, OCI-Ly10, 96 h): < 0.05 µM | IC50 (TNFα [2]): 0.1 to 0.5 µM | IC50 (IRAK4 [3]): < 0.05 µM | DC50 (IRAK4 [4]): < 0.01 µM
